From ChEMBL document CHEMBL1828525, “Metronidazole acid acyl sulfonamide: a novel class of anticancer agents and potential EGFR tyrosine kinase inhibitors” (Bioorg Med Chem, 2011) come the findings set out here.

In brackets after ≈: the same amount, converted by molar mass.

For test [1], the target named is Receptor tyrosine-protein kinase erbB-2 (Homo sapiens, UniProt P04626).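 Also: recombinant His6-tagged human HER-2, autophosphorylation inhibition read by DELFIA time-resolved fluorescence after 10 min preincubation.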
Receptor tyrosine-protein kinase erbB-2, sequence (P04626 whole entry): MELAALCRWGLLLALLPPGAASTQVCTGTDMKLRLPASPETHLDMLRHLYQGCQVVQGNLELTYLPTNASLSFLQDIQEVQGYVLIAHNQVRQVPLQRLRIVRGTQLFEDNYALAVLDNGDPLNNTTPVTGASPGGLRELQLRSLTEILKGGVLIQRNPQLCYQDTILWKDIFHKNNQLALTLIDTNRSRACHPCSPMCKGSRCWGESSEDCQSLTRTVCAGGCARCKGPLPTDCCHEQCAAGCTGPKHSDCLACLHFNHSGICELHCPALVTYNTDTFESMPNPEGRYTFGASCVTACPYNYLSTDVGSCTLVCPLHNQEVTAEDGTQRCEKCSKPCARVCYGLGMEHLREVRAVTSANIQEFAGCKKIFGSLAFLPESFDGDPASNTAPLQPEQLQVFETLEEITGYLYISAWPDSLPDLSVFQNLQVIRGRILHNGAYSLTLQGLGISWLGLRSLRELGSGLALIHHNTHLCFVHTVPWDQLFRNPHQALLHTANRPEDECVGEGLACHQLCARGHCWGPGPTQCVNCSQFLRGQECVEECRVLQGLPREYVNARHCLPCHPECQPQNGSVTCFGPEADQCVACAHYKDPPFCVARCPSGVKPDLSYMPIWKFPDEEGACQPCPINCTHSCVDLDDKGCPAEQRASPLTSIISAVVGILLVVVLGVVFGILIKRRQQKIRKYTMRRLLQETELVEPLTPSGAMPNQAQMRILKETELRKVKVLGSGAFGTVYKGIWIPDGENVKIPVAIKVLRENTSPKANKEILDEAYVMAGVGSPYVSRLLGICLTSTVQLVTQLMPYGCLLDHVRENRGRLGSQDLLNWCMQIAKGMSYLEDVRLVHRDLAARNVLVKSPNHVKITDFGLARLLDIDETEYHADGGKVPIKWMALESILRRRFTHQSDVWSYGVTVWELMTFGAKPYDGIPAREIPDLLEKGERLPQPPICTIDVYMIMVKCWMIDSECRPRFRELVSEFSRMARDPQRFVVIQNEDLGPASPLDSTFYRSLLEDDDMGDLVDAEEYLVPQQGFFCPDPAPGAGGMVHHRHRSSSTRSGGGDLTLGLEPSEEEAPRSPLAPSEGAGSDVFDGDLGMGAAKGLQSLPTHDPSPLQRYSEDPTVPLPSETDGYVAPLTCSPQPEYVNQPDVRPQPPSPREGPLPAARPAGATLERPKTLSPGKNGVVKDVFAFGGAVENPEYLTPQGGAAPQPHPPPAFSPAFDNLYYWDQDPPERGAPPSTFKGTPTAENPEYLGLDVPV
Description: Inhibition of human recombinant (His)6-tagged HER-2 autophosphorylation pre-incubated for 10 mins by DELFIA/Time-resolved fluorimetry
Another test concerns A549. The test can be described thus: Antiproliferative activity against human A549 cells after 48 hrs by MTT assay. The following applies: A549, 48 h. The test is classed as functional, cell-based.
The next test has as its system B16-F10. The test can be described thus: Antiproliferative activity against mouse B16-F10 cells after 48 hrs by MTT assay. The test is classed as functional, cell-based. The settings on record: B16-F10, 48 h.
The target of test [2] is Epidermal growth factor receptor (Homo sapiens, UniProt P00533).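 Also: recombinant His6-tagged EGFR autophosphorylation, read by DELFIA time-resolved fluorimetry after a 10 min preincubation.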
Epidermal growth factor receptor, sequence (P00533 whole entry): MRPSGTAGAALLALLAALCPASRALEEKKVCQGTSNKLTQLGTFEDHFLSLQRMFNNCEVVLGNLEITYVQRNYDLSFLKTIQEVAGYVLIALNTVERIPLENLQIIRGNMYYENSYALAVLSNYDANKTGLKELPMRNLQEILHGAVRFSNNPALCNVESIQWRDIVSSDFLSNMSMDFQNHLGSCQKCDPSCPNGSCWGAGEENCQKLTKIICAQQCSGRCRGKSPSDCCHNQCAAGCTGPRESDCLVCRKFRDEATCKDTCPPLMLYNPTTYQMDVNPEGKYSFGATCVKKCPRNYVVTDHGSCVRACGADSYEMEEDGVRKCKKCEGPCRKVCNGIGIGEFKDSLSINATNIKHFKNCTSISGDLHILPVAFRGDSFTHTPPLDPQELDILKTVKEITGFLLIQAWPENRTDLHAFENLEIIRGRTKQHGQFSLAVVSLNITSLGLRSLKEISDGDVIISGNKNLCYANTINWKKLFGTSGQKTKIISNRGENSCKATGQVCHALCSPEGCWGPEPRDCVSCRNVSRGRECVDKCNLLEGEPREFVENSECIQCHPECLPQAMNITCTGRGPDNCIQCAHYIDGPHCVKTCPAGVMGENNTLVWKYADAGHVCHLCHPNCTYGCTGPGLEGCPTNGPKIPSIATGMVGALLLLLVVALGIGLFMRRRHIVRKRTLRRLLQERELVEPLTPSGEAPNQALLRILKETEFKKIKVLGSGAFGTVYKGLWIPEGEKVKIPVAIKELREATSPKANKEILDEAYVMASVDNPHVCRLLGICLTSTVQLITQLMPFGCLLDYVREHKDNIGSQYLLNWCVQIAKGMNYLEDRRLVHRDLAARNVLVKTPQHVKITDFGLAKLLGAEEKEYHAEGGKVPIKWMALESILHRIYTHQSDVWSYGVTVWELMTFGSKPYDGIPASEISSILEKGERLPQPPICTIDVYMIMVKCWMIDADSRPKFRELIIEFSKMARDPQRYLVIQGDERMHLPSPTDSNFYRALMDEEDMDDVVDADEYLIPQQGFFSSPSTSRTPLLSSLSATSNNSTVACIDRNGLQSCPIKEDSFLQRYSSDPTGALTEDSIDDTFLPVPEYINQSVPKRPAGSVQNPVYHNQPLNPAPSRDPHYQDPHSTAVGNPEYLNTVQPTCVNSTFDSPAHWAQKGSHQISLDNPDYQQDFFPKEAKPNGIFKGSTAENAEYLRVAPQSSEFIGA
Description: Inhibition of human recombinant (His)6-tagged EGFR autophosphorylation pre-incubated for 10 mins by DELFIA/Time-resolved fluorimetry

`Cc1ncc([N+](=O)[O-])n1CC(=O)NS(=O)(=O)c1ccccc1` returned an IC50 in test [1] of 4.21 µM.
In the case of `Cc1ccc(S(=O)(=O)NC(=O)Cn2c([N+](=O)[O-])cnc2C)cc1`, the IC50 with A549 came out at 4.38 µg/mL (≈ 12.9 µM); in the test on B16-F10 it was 3.55 µg/mL (≈ 10.5 µM); in test [2], 3.43 µM; in test [1], 4.76 µM.
In the same order, the values of `Cc1ncc([N+](=O)[O-])n1CC(=O)NS(=O)(=O)c1ccc(F)cc1` are 1.26 µg/mL (≈ 3.68 µM), 0.35 µg/mL (≈ 1.02 µM), 0.39 µM and 1.53 µM.
Regarding `Cc1ncc([N+](=O)[O-])n1CC(=O)NS(=O)(=O)c1ccc(Cl)cc1`, the half-inhibitory concentration (IC50) was 2.47 µg/mL (≈ 6.88 µM) with A549, 0.92 µg/mL (≈ 2.56 µM) in the test with B16-F10, 1.51 µM in test [2] and 3.41 µM in test [1].
In the same order, the values of `Cc1ncc([N+](=O)[O-])n1CC(=O)NS(=O)(=O)c1ccc(Br)cc1` are 3.03 µg/mL (≈ 7.51 µM), 2.37 µg/mL (≈ 5.88 µM), 2.17 µM and 3.59 µM.
The corresponding values for `O=C(Cc1ccc(F)cc1)NS(=O)(=O)c1ccccc1` are 10.1 µg/mL (≈ 34.5 µM), 9.07 µg/mL (≈ 30.9 µM), 6.74 µM and 8.41 µM.
For `Cc1ccc(S(=O)(=O)NC(=O)Cc2ccc(F)cc2)cc1`, the IC50 stood at 12 µg/mL (≈ 39.2 µM) with A549, 9.94 µg/mL (≈ 32.3 µM) in the test with B16-F10, 8.28 µM in test [2] and 10.5 µM in test [1].
The corresponding values for `O=C(Cc1ccc(F)cc1)NS(=O)(=O)c1ccc(F)cc1` are 5.64 µg/mL (≈ 18.1 µM), 4.23 µg/mL (≈ 13.6 µM), 5.17 µM and 7.02 µM.
Regarding `O=C(Cc1ccc(F)cc1)NS(=O)(=O)c1ccc(Cl)cc1`, the IC50 with A549 turned out to be 6.28 µg/mL (≈ 19.2 µM); in the test with B16-F10 it was 6.36 µg/mL (≈ 19.4 µM); in test [2], 5.93 µM; in test [1], 7.56 µM.
In the same order, the values of `O=C(Cc1ccc(F)cc1)NS(=O)(=O)c1ccc(Br)cc1` are 7.94 µg/mL (≈ 21.3 µM), 8.2 µg/mL (≈ 22 µM), 6.41 µM and 8.18 µM.
Turning to `O=C(Cc1ccc(Cl)cc1)NS(=O)(=O)c1ccccc1`, the values for the IC50 in test [2] and in test [1] were 11.9 µM and 13.1 µM, respectively.
In the same order, the values of `Cc1ccc(S(=O)(=O)NC(=O)Cc2ccc(Cl)cc2)cc1` are 13.7 µM and 15.6 µM.
For the compound `O=C(Cc1ccc(Cl)cc1)NS(=O)(=O)c1ccc(F)cc1`, the IC50 in test [2] came to 9.59 µM; in test [1], 11.1 µM.
As to `O=C(Cc1ccc(Cl)cc1)NS(=O)(=O)c1ccc(Cl)cc1`, the values for the IC50 in test [2] and in test [1] were 10.3 µM and 13.3 µM, respectively.
For `O=C(Cc1ccc(Cl)cc1)NS(=O)(=O)c1ccc(Br)cc1`, the IC50 stood at 11.3 µM in test [2] and 13.6 µM in test [1].
With `O=C(Cc1ccc(Br)cc1)NS(=O)(=O)c1ccccc1`, the values for the IC50 in test [2] and in test [1] were 17.8 µM and 19 µM, respectively.
For the compound `Cc1ccc(S(=O)(=O)NC(=O)Cc2ccc(Br)cc2)cc1`, the IC50 in test [2] was 18.4 µM; in test [1] it was 20.3 µM.
On to `O=C(Cc1ccc(Br)cc1)NS(=O)(=O)c1ccc(F)cc1`, for which the IC50 is 14.5 µM in test [2] and 16.3 µM in test [1].
The corresponding values for `O=C(Cc1ccc(Br)cc1)NS(=O)(=O)c1ccc(Cl)cc1` are 15.9 µM and 18.9 µM.
`O=C(Cc1ccc(Br)cc1)NS(=O)(=O)c1ccc(Br)cc1` returned an IC50 in test [1] of 19.8 µM.
Take `COc1ccc(CC(=O)NS(=O)(=O)c2ccccc2)cc1`: the IC50 in test [2] came out at 26.2 µM; in test [1], 29.1 µM.
In the same order, the values of `COc1ccc(CC(=O)NS(=O)(=O)c2ccc(C)cc2)cc1` are 38.5 µM and more than 50 µM.
For the compound `COc1ccc(CC(=O)NS(=O)(=O)c2ccc(F)cc2)cc1`, the IC50 in test [2] amounted to 21.8 µM; in test [1], 23.4 µM.
On to `COc1ccc(CC(=O)NS(=O)(=O)c2ccc(Cl)cc2)cc1`, for which the half-inhibitory concentration (IC50) in test [2] amounted to 32.9 µM; in test [1], 37.9 µM.
In the case of `COc1ccc(CC(=O)NS(=O)(=O)c2ccc(Br)cc2)cc1`, the IC50 in test [2] is 24.2 µM; in test [1], 25 µM.
In the same order, the values of `O=C(Cc1cccc(Br)c1)NS(=O)(=O)c1ccccc1` are 24.7 µM and 26.3 µM.
With `Cc1ccc(S(=O)(=O)NC(=O)Cc2cccc(Br)c2)cc1`, the IC50 in test [2] was 26.2 µM; in test [1], 27.9 µM.
As for `O=C(Cc1cccc(Br)c1)NS(=O)(=O)c1ccc(F)cc1`, the figures for the IC50 in test [2] and in test [1] were 18.7 µM and 20.4 µM, respectively.
The corresponding values for `O=C(Cc1cccc(Br)c1)NS(=O)(=O)c1ccc(Cl)cc1` are 21.3 µM and 23.5 µM.
With `O=C(Cc1cccc(Br)c1)NS(=O)(=O)c1ccc(Br)cc1`, the IC50 amounted to 24.3 µM in test [2] and 27.4 µM in test [1].
